From patent publication US10189887B2, “Polypeptides and uses thereof for reducing CD95-mediated cell motility” (INSERM (INSTITUT NATIONAL DE LA SANTÉ ET DE LA RECHERCHE …, priority 2014, dated 2019)
Ends that are not written are not given here.

Columns and labels:
[1] = test system: CD95-mediated Ca^2+ response; assay: Calcium response to cl-CD95L in Jurkat cells (Fura2/FuraPE3 video imaging); format: cell-based; details: Jurkat pre-incubated 1 hr, 10 μM peptide; 100 ng/ml cl-CD95L
Description: (§1) Cells were loaded with Fura2-AM (1 μM) at resting temperature for 30 min in Hank's Balanced Salt Solution (HBSS). After washing with HBSS, the cells were incubated for 15 min in the absence of Fura2-AM to complete de-esterification of the dye. Cells were placed in a thermostated chamber (37° C.) of an inverted epifluorescence microscope (Olympus IX70) equipped with a ×40, UApo/340-1.15 W water-immersion objective (Olympus), and fluorescence micrograph images were captured at 510 nm and at 12-bit resolution by a fast-scan camera (CoolSNAP fx Monochrome, Photometrics). To minimize UV light exposure, 4×4 binning function was used. Fura2-AM was alternately excited at 340 and 380 nm, and ratios of the resulting images (excitations at 340 and 380 nm and emission filter at 520 nm) were produced at constant intervals (5 s or 10 s according to the stimulus). […] Fluorescent images were pseudocolored using the IMD display mode in MetaFluor and assembled without further manipulation in Photoshop (Adobe). Raw data were acquired with MetaFluor and graphed in Origin (OriginLab). [Ca^2+]i was calculated using the following equation: [Ca^2+]i=Kd(R−Rmin)/(R−Rmax)×Sf2/Sf1, where Kd is the Fura2-AM dissociation constant at the two excitation wavelengths (F340/F380); Rmin is the fluorescence ratio in the presence of minimal calcium, obtained by chelating Ca^2+ with 10 mM EGTA; Rmax is the fluorescence ratio in the presence of excess calcium, obtained by treating cells with 1 μM ionomycin; Sf2 is the fluorescence of the Ca^2+-free form; and Sf1 is the fluorescence of the Ca^2+-bound form of Fura2-AM at excitation wavelengths of 380 and 340 nm, respectively. In some experiments cells were placed in a Ca^2+-free medium consisting of the HBSS described above in which CaCl2 was omitted and 100 μM EGTA was added in order to chelate residual Ca^2+ ions. This medium was added to the cells just before recording to avoid leak of the intracellular calcium stores.
T cells were loaded with Fura-PE3-AM (1 μM) at room temperature for 30 min in Hank's Balanced Salt Solution (HBSS). After washing, the cells were incubated for 15 min in the absence of Fura-PE3-AM to complete de-esterification of the dye. Cells were placed in the temperature controlled chamber (37° C.) of an inverted epifluorescence microscope (Olympus IX70) equipped with an ×40 UApo/340-1.15 W water-immersion objective (Olympus), and fluorescence micrograph images were captured at 510 nm and 12-bit resolution by a fast-scan camera (CoolSNAP fx Monochrome, Photometrics). To minimize UV light exposure, a 4×4 binning function was used. Fura-PE3 was alternately excited at 340 and 380 nm, and the ratios of the resulting images (emission filter at 520 nm) were produced at constant intervals (10 seconds). The Fura-PE3 ratio (Fratio 340/380) images were analyzed offline with Universal Imaging software, including Metafluor and Metamorph. Fratio reflects the intracellular Ca^2+ concentration changes. Each experiment was repeated 3 times, and the average of more than 20 single-cell traces was analyzed.

[2] = test system: CD95-mediated Ca^2+ response; assay: Calcium response to cl-CD95L in activated PBL; format: cell-based, human; details: activated PBL pre-incubated 1 hr, 10 μM peptide; 100 ng/ml cl-CD95L
Description: as §1
All cells were purchased from ATCC (Molsheim Cedex, France). T leukemic cell lines CEM, H9 and Jurkat were cultured in RPMI supplemented with 8% heat-inactivated FCS (v/v) and 2 mM L-glutamine at 37° C. in a 5% CO2 incubator. CEM-IRC cell expressing a low amount of plasma membrane CD95 was described in (Beneteau et al., 2007; Beneteau et al., 2008). […]
T cells were loaded with Fura-PE3-AM (1 μM) at room temperature for 30 min in Hank's Balanced Salt Solution (HBSS). […] Cells were placed in the temperature controlled chamber (37° C.) of an inverted epifluorescence microscope (Olympus IX70) equipped with an ×40 UApo/340-1.15 W water-immersion objective (Olympus), and fluorescence micrograph images were captured at 510 nm and 12-bit resolution by a fast-scan camera (CoolSNAP fx Monochrome, Photometrics). […]

[3] = test system: CD95-mediated Ca^2+ response; assay: Calcium response to cl-CD95L in MEF; format: cell-based; details: MEFs pre-incubated 1 hr, 10 μM peptide; 100 ng/ml cl-CD95L
Description: Cells were loaded with Fura2-AM (1 μM) at resting temperature for 30 min in Hank's Balanced Salt Solution (HBSS). After washing with HBSS, the cells were incubated for 15 min in the absence of Fura2-AM to complete de-esterification of the dye. Cells were placed in a thermostated chamber (37° C.) of an inverted epifluorescence microscope (Olympus IX70) equipped with a ×40, UApo/340-1.15 W water-immersion objective (Olympus), and fluorescence micrograph images were captured at 510 nm and at 12-bit resolution by a fast-scan camera (CoolSNAP fx Monochrome, Photometrics). To minimize UV light exposure, 4×4 binning function was used. Fura2-AM was alternately excited at 340 and 380 nm, and ratios of the resulting images (excitations at 340 and 380 nm and emission filter at 520 nm) were produced at constant intervals (5 s or 10 s according to the stimulus). […] Fluorescent images were pseudocolored using the IMD display mode in MetaFluor and assembled without further manipulation in Photoshop (Adobe). Raw data were acquired with MetaFluor and graphed in Origin (OriginLab). […]

CD95/PLCγ1 = target: T1, CD95/PLCγ1 (Homo sapiens, UniProt P19174); assay: PLCγ1 recruitment to CD95 (immunoprecipitation and immunoblotting); format: cell-based; details: HEK cells co-transfected with PLCγ1 and construct
T1 construct: endogenous in cells; host or cells: CEM (human leukemic T-cell line)
T1 sequence (P19174 2-1290 limits assumed): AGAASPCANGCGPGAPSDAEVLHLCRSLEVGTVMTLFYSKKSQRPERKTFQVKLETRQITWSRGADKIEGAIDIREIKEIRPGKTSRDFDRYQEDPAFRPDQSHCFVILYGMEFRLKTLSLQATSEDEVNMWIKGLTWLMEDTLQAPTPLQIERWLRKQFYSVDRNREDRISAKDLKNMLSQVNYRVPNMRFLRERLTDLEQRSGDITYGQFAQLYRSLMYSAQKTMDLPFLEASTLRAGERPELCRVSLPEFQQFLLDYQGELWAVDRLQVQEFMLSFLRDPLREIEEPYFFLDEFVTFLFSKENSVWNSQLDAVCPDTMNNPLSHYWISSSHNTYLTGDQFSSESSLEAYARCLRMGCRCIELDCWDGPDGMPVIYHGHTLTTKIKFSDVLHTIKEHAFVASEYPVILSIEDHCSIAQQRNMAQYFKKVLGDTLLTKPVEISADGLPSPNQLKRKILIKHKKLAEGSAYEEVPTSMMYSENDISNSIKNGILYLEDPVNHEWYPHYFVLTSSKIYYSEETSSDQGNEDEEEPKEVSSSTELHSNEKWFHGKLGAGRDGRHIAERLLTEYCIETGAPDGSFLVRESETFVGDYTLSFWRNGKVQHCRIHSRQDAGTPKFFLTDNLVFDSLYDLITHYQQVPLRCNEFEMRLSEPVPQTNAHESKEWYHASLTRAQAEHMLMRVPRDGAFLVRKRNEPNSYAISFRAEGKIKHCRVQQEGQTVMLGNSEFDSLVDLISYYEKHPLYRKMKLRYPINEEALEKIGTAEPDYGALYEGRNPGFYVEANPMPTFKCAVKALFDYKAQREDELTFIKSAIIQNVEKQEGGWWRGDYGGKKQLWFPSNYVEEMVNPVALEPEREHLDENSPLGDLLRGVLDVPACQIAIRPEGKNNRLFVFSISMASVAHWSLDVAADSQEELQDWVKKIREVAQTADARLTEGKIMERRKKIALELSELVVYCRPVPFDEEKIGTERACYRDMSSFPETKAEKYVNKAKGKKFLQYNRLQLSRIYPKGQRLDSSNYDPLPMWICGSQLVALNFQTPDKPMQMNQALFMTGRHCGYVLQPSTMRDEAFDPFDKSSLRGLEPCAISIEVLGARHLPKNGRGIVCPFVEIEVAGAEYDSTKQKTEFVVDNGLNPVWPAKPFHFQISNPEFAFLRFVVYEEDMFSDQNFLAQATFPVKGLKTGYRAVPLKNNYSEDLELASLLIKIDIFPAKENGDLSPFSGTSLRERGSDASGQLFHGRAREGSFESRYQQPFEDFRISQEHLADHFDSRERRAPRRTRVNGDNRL
Description: T-cells (5×10^7 cells per condition) were stimulated with Ig-CD95L or cl-CD95L (100 ng/mL) for indicated times at 37° C. Cells were lysed, incubated with APO1.3 (1 ug/mL) for 15 min at 4° C. and CD95 was immunoprecipitated using A/G protein-coupled magnetic beads (Ademtech, Pessac, France) for 1 h. After extensive washing, the immune complex was resolved by SDS-PAGE and immunoblotting was performed with indicated antibodies.
Cells were lyzed for 30 minutes at 4° C. in lysis buffer (25 mM HEPES pH 7.4, 1% v/v Triton X-100, 150 mM NaCl, 2 mM EGTA supplemented with a mix of protease inhibitors (Sigma-Aldrich)). Protein concentration was determined by the bicinchoninic acid method (PIERCE, Rockford, Ill., USA) according to the manufacturer's protocol. Proteins were separated on a 12% SDS-PAGE and transferred to a nitrocellulose membrane (GE Healthcare, Buckinghamshire, England). The membrane was blocked 15 minutes with TBST (50 mM Tris, 160 mM NaCl, 0.05% v/v Tween 20, pH 7.8) containing 5% w/v dried skimmed milk (TBSTM). Primary antibody was incubated overnight at 4° C. in TBSTM. The membrane was intensively washed (TBST) and then the peroxydase-labeled anti-rabbit or anti-mouse (SouthernBiotech, Birmingham, Ala., US) was added for 45 minutes. The proteins were visualized with the enhanced chemiluminescence substrate kit (ECL, GE Healthcare).

Substance	calcium response to cl-CD95L [1]	calcium response to cl-CD95L [2]	initial phase of the calcium response to cl-CD95L [3]	interaction with PLCγ1 (co-immunoprecipitation) (CD95/PLCγ1)	PLCγ1 recruitment to CD95 (CD95/PLCγ1; CD95L 100 ng/mL)
TAT peptide control: TAT control peptide, SEQ ID NO: 5 (RKKRRQRRRGGSIELDDPRPR; TAT-CONTROL) [reference compound]	did not significantly modify the calcium response	did not significantly modify the calcium response	did not modify the initial phase		
CD95^(175-210)-mCherry: construct consisting of CD95 amino acids 175 to 210 (calcium-inducing domain) fused to mCherry, expressed in HEK cells (KRKEVQKTCRKHRKENQGSHESPTLNPETVAINLSD-mCherry)				interacted with PLCγ1	inhibited its recruitment to CD95
